Reference: patent US12557829B2, “Liquid-phase, supplementary feed composition containing coenzyme Q10” (priority 2021, dated 2026)
Read-outs that look alike come from different tables or passages of the source.

Experiment: Single intravenous administration, plasma concentration of coenzyme Q10
Type: in vivo
Conditions: rat, 6 mg/kg, rats
Procedure: The supplementary feed composition containing coenzyme Q10 was orally administered to rats for 5 consecutive days, and systemic absorption was examined after oral administration on the 5th day. In addition, a single intravenous injection test was performed to evaluate the absorption rate (bioavailability).
Single Intravenous Administration Experiment
Plasma concentration measurement after intravenous coenzyme Q10 administration: dose (6 mg/kg), measured up to 6 hours
Plasma Collection after Intravenous Administration
After lightly anesthetizing the rats with ether, a polyethylene tube (PE-50, Intramedic, Clay Adams, USA) was intubated into the left femoral artery and vein. After the rats recovered from anesthesia, coenzyme Q10 was intravenously administered (6 mg/kg), and blood was collected from the left femoral artery at 0 (blank), 1, 5, 10, 15, 30, 60, 90, 120 and 180 minutes. 250 μl of blood was received in a microtube, and 100 μl of plasma obtained after centrifugation was used for quantification.
Quantification of the Concentration of Coenzyme Q10 in Plasma
For coenzyme Q10, a calibration curve was prepared in which a good linear relationship (R=0.999) was established in the concentration range of 0.05 μg/mL to 10 μg/mL. […] 100 μL of this was taken and quantified by the HPLC assay described above.

- half-life (read-out: half-life (t1/2,α) in the pre-distribution phase (α phase)): 3.3 min
- half-life (read-out: half-life (t1/2,β) in the post-distribution phase (β phase)): 52 min
Compound: COC1=C(OC)C(=O)C(C/C=C(\C)CC/C=C(\C)CC/C=C(\C)CC/C=C(\C)CC/C=C(\C)CC/C=C(\C)CC/C=C(\C)CC/C=C(\C)CC/C=C(\C)CCC=C(C)C)=C(C)C1=O [coenzyme Q10, 2,3-dimethoxy-5-methyl-6-decaprenyl-1,4-benzoquinone]
